Where two headings read alike, the source gives them in different places.
How the values were obtained:
14-3-3β [1] = target: T1, 14-3-3β (Homo sapiens, UniProt P31946); format: binding; details: at very low and very high FGG-ERα peptide concentrations
T1 sequence (P31946 1-246): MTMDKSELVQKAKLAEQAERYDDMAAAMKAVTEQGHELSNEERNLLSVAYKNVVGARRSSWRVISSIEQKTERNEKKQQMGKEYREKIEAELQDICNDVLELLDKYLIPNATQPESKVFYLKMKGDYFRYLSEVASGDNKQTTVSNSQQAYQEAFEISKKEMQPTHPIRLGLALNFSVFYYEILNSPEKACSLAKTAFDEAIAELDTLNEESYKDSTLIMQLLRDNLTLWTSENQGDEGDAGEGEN

14-3-3β [2] = target: T1, 14-3-3β; format: binding
[3] = target: 14‐3‐3β adapter protein (dimer) (UniProt P31946); experiment: fluorescence polarisation
[4] = target: 14‐3‐3β adapter protein (dimer) (UniProt P31946); experiment: fluorescence polarisation; remark: listed apart in the source
crystal structure = target: the molecule itself; experiment: crystal structure
[5] = FGG-ERα titration at constant Q8 concentrations

In the case of `O=C1N2CN3C(=O)N4CN5C(=O)N6CN7C(=O)N8CN9C(=O)N%10CN%11C(=O)N%12CN%13C(=O)N%14CN%15C(=O)N%16CN1C1C2N2CN%17C(=O)N(CN%18C(=O)N(CN%19C(=O)N(CN%20C(=O)N(CN%21C(=O)N(CN%22C(=O)N(CN%23C(=O)N(CN1C2=O)C%16C%15%23)C%14C%13%22)C%12C%11%21)C%10C9%20)C8C7%19)C6C5%18)C4C3%17` (stereo not shown) [Q8, Cucurbit[8]uril], the “effect of Q8” value (14-3-3β [1]) is reported as “negligible”, the “Q8 concentration at which the enhancement effect appears to saturate” value (14-3-3β [2]; [5]) is reported as “approximately 10 μM” and the “combinatorial inhibition at high Q8 concentrations” value (14-3-3β [2]; [5]) is reported as “no evidence of combinatorial inhibition”.

Cucurbit[7]uril [Q7] was tested, and the “enhancement of apparent affinity of FGG-ERα for 14-3-3” value (14-3-3β [2]; Q7 instead of Q8 (Figure 2E)) was “did not enhance the apparent affinity”.

“FGG‐ERα phosphopeptide (15‐mer: N‐terminal FGG motif fused to the wild‐type 14‐3‐3‐binding epitope of estrogen receptor α)” was tested, and the IC50 [3] was 1000 nM and the IC50 [4] was 70 nM.

B1: truncated 14‐3‐3βΔC variant (domain or fragment)
chain: QGSMTMDKSELVQKAKLAEQAERYDDMAAAMKAVTEQGHELSNEERNLLSVAYKNVVGARRSSWRVISSIEQKTERNEKKQQMGKEYREKIEAELQDICNDVLELLDKYLIPNATQPESKVFYLKMKGDYFRYLSEVASGDNKQTTVSNSQQAYQEAFEISKKEMQPTHPIRLGLALNFSVFYYEILNSPEKACSLAKTAFDEAIAELDTLNEESYKDSTLIMQLLRDNLTLWTSENQGDEGDAGEGEN
With B1 the “stoichiometry N” value (crystal structure) was 2.

Source: article PMC5575475 (Angewandte Chemie (International Ed. in English), 2017)
